Laboratory results: publication PMC5207038 (ACS chemical biology, 2016)
Entries after “also recorded” stand apart in the source; their conditions may differ. One block for each molecule: values may come before it.

What was measured:
A2BAR = molecular target: T1, A2BAR (Homo sapiens, UniProt P29275); test: Functional assay for the A2BAR in CHO cells; format: cell-based; details: for functional activity at A2BAR: inactive refers to 10 µM
T1 sequence (P29275 1-332): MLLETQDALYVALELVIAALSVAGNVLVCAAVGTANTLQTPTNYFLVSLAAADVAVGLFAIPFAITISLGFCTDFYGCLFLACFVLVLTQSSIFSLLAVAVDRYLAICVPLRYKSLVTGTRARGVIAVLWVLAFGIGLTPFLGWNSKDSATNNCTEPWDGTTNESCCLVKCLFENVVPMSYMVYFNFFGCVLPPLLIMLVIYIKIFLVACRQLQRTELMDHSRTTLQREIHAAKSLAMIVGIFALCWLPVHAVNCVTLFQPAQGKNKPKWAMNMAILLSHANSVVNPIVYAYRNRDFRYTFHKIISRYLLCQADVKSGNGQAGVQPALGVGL

hA1AR = molecular target: T2, hA1AR (Homo sapiens, UniProt P30542); test: Radioligand binding at human A1AR, membranes of CHO cells; details: for % inhibition at 30 µM A1AR: radioligand displacement at 30 µM, bases; for inhibition at 30 µM: read-out: % inhibition at 30 µM A1AR; for inhibition at 10 µM: read-out: % inhibition at 10 µM A1AR
T2 sequence (P30542 1-326): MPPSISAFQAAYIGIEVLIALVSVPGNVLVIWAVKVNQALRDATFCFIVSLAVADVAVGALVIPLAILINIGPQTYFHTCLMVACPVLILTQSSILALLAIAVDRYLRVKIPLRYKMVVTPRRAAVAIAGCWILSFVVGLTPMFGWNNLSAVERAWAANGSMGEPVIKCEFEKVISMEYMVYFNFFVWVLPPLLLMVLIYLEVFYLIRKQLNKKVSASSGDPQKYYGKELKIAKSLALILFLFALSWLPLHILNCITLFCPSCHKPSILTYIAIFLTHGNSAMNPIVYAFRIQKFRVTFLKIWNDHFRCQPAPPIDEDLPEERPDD

hA2AAR = hA2AAR (Homo sapiens, UniProt P29274); test: Radioligand binding at human A2AAR, membranes of HEK293 cells; details: for % inhibition at 30 µM A2AAR: radioligand displacement at 30 µM, bases; for inhibition at 30 µM: read-out: % inhibition at 30 µM A2AAR; for inhibition at 10 µM: read-out: % inhibition at 10 µM A2AAR
hA3AR = molecular target: T3, hA3AR (Homo sapiens, UniProt P0DMS8); test: Radioligand binding at human A3AR, membranes of CHO cells; details: for % inhibition at 30 µM A3AR: radioligand displacement at 30 µM, bases; for inhibition at 30 µM: read-out: % inhibition at 30 µM A3AR
T3 sequence (P0DMS8 1-318): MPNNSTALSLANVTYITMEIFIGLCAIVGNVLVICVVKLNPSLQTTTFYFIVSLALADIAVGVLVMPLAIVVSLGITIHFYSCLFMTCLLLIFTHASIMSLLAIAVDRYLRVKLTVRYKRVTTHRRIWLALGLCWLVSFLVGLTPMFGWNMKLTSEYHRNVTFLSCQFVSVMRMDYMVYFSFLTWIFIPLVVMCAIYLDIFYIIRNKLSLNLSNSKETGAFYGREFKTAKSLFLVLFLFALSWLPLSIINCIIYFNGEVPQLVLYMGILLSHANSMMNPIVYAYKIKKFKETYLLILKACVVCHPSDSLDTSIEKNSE

A3AR = molecular target: T4, A3AR (Homo sapiens, UniProt P0DMS8)
T4 sequence (P0DMS8 1-318): T3 sequence (P0DMS8 1-318)

A1AR = molecular target: T5, A1AR (Homo sapiens, UniProt P30542); details: cAMP assay
T5 sequence (P30542 1-326): T2 sequence (P30542 1-326)

hA2AAR, sequence (P29274 whole entry): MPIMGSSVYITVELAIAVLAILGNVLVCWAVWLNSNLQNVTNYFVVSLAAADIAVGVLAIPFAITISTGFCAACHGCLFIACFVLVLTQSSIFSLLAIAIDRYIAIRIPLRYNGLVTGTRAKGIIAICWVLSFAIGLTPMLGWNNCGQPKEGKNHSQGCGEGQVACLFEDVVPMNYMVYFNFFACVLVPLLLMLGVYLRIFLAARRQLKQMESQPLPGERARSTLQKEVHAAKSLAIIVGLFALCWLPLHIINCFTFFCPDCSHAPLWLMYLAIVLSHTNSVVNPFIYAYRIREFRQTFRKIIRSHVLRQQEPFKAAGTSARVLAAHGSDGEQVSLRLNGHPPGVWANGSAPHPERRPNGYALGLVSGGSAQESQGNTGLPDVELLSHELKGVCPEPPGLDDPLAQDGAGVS

SMILES: Nc1nc(=O)[nH]c2c1ncn2[C@@H]1O[C@H](CO)[C@@H](O)[C@H]1O [Compound 9, isoguanosine]
EC50 (A2BAR): 3100 nM
functional activity at A2BAR (A2BAR): full agonists

% inhibition at 30 µM A1AR (hA1AR): No significant displacement
inhibition at 30 µM (hA1AR): 19 ± 8%
% inhibition at 30 µM A2AAR (hA2AAR): No significant displacement
inhibition at 30 µM (hA2AAR): 19 ± 8%
% inhibition at 30 µM A3AR (hA3AR): No significant displacement
SMILES: Nc1ncnc2[nH]cnc12 [Compound 26, adenine]

inhibition at 10 µM (hA2AAR): 34 ± 2%
Emax (A3AR; CHO, read-out: maximal efficacy A3AR): ~30%
SMILES: Nc1ncn([C@@H]2O[C@H](CO)[C@@H](O)[C@H]2O)c(=O)n1 [Compound 12, 5-azacytidine]

inhibition at 10 µM (hA1AR): 10 ± 3%
inhibition at 10 µM (hA2AAR): 13 ± 9%
SMILES: Cc1cn([C@@H]2O[C@H](CO)[C@@H](O)[C@H]2O)c(=O)nc1N [Compound 13, 5-methylcytidine]

% inhibition at 30 µM A1AR (hA1AR): No significant displacement
inhibition at 30 µM (hA1AR): 11 ± 3%
% inhibition at 30 µM A2AAR (hA2AAR): No significant displacement
% inhibition at 30 µM A3AR (hA3AR): No significant displacement
inhibition at 30 µM (hA3AR): 19 ± 5%
SMILES: Nc1nc[nH]c(=O)c1Cl [Compound 29, 6-amino-5-chloropyrimidin-4(3H)-one]

EC50 (A2BAR): 1500 nM
functional activity at A2BAR (A2BAR): full agonists
SMILES: Nc1ccnc2c1ncn2[C@@H]1O[C@H](CO)[C@@H](O)[C@H]1O [Compound 5, 1-deazaadenosine]

functional activity at A2BAR (A2BAR): inactive
SMILES: Nc1nccc2c1ncn2[C@@H]1O[C@H](CO)[C@@H](O)[C@H]1O [Compound 6, 3-deazaadenosine]
functional activity at A1AR (A1AR): no influence on cAMP levels was detected; also recorded: lost the ability to activate the receptor

inhibition at 30 µM (hA2AAR): 40 ± 8%
inhibition at 30 µM (hA3AR): 36 ± 6%
SMILES: Cn1c(=O)[nH]c2nc[nH]c2c1=O [Compound 28, 1-methylxanthine]

inhibition at 10 µM (hA1AR): 15 ± 2%
% inhibition at 10 µM A2AAR (hA2AAR; radioligand displacement at 10 µM, mean ± standard error, three experiments): completely lost affinity
inhibition at 10 µM (hA2AAR): 5 ± 2%
functional activity at A3AR (A3AR; cAMP assay, 10 µM for compound 11): strongly selective agonist
SMILES: Nc1cccc2c1ncn2[C@@H]1O[C@H](CO)[C@@H](O)[C@H]1O [Compound 7, 1,3-dideazaadenosine]
